Measured values: patent US12590066B2, “Fused-heterocyclyl-carbonohydrazonoyl dicyanide compounds and use thereof” (KOREA INSTITUTE OF SCIENCE AND TECHNOLOGY, priority 2020, dated 2026)

Legend:
tau protein = target: T1, tau protein (Homo sapiens, UniProt P10636); assay: Tau-BiFC cell model, inhibition of Forskolin-induced tau protein aggregation; format: cell-based; conditions: Forskolin 30 μM, 48 hours
T1 construct: BiFC fluorescent-protein fragments (type and halves not specified); expressed in transfected cells
T1 sequence (P10636 1-441 isoform P10636-8): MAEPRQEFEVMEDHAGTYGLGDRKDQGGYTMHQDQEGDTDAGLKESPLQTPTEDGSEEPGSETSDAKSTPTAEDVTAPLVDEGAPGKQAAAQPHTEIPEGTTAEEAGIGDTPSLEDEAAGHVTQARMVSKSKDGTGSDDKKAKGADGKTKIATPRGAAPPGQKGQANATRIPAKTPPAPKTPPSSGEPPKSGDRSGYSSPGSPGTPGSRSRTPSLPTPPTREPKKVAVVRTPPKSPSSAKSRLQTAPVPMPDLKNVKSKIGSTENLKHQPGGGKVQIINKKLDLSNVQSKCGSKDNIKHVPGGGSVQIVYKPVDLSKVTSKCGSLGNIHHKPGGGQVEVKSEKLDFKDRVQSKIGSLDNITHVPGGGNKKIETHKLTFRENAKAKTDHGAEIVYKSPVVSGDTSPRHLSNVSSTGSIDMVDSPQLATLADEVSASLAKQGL
Experimental: In order to select novel tau protein aggregation-inhibiting substances, tau-BiFC cell model, in which formation of tau oligomers in living cells is easily observed, was used. Tau-BiFC cells were aliquoted into a 384-well plate. On the next day, the cells were treated with each of the compounds prepared according to Examples 1 to 57 at concentrations of 1 μM, 3 μM, and 10 μM, together with Forskolin (at a treatment concentration of 30 μM), which is a compound inducing tau protein aggregation by activating tau phosphorylase PKA. After 48 hours, nuclei in the cells were stained using Hoechst (at a treatment concentration of 2 μg/mL), and BiFC fluorescence intensity was automatically measured using Operetta (PerkinElmer) to count stained nuclei in each well out of the entire well plate. The group treated only with Forskolin, which induces tau protein aggregation, was set to a reference point of a 100% tau protein-aggregated state, and the effects of the compounds were confirmed using the equation “BiFC fluorescence intensity due to compound synthesized according to embodiment of present invention/(fluorescence intensity of control group treated only with Forskolin inducing tau protein aggregation−fluorescence intensity of untreated control group)×100”. Furthermore, the degree of cytotoxicity induced by the newly synthesized compound was also measured based on the 100% cell viability of the group treated only with Forskolin as a reference, and the cytotoxicity value of each compound was calculated using the equation “(number of stained nuclei in group treated with compound/number of stained nuclei in group treated with Forskolin)×100”. Based on the treatment results, substances inhibiting intracellular tau protein aggregation were selected from a series of candidate groups showing a tau protein aggregation inhibition rate of 70% or more and cell viability of 100% at a compound treatment concentration of 10 μM or more.
In order to evaluate dose-dependent tau protein aggregation inhibition effects of the compounds selected according to Experimental Example 1 on tau protein aggregation, tau-BiFC cells were treated with the selected compounds at concentrations of 0.03 μM, […], 0.3 μM, 1 μM, 3 μM, 10 μM, and 30 μM, respectively, together with Forskolin (at a treatment concentration of 30 μM), which is a tau protein aggregation-inducing substance. After 48 hours, tau protein aggregation reaction and degrees of cytotoxicity were analyzed by observing images of the cells. IC50 and toxicity of the compounds were analyzed by way of nonlinear regression analysis of prism software (Graph Pad).

Tau-BiFC cells = assay: Cell viability (stained nuclei count) in Tau-BiFC cells; format: cell-based; conditions: 10 μM compound, 48 hours; Forskolin-only group = 100% cell viability
Experimental: In order to select novel tau protein aggregation-inhibiting substances, tau-BiFC cell model, in which formation of tau oligomers in living cells is easily observed, was used. Tau-BiFC cells were aliquoted into a 384-well plate. On the next day, the cells were treated with each of the compounds prepared according to Examples 1 to 57 at concentrations of 1 μM, 3 μM, and 10 μM, together with Forskolin (at a treatment concentration of 30 μM), which is a compound inducing tau protein aggregation by activating tau phosphorylase PKA. After 48 hours, nuclei in the cells were stained using Hoechst (at a treatment concentration of 2 μg/mL), and BiFC fluorescence intensity was automatically measured using Operetta (PerkinElmer) to count stained nuclei in each well out of the entire well plate. The group treated only with Forskolin, which induces tau protein aggregation, was set to a reference point of a 100% tau protein-aggregated state, and the effects of the compounds were confirmed using the equation “BiFC fluorescence intensity due to compound synthesized according to embodiment of present invention/(fluorescence intensity of control group treated only with Forskolin inducing tau protein aggregation−fluorescence intensity of untreated control group)×100”. Furthermore, the degree of cytotoxicity induced by the newly synthesized compound was also measured based on the 100% cell viability of the group treated only with Forskolin as a reference, and the cytotoxicity value of each compound was calculated using the equation “(number of stained nuclei in group treated with compound/number of stained nuclei in group treated with Forskolin)×100”. Based on the treatment results, substances inhibiting intracellular tau protein aggregation were selected from a series of candidate groups showing a tau protein aggregation inhibition rate of 70% or more and cell viability of 100% at a compound treatment concentration of 10 μM or more. […]

CYP1A2 = target: T2, CYP1A2 (Homo sapiens, UniProt P05177); assay: Inhibitory effect on CYP coenzyme activity, human liver microsomes; format: in vitro ADME; conditions: 10 μM compound, human liver microsomes 0.25 mg/mL, substrate phenacetin, 15 minutes
T2 construct: human liver microsomes (0.25 mg/mL); from tissue; host or cells: human liver microsomes
T2 sequence (P05177 1-516): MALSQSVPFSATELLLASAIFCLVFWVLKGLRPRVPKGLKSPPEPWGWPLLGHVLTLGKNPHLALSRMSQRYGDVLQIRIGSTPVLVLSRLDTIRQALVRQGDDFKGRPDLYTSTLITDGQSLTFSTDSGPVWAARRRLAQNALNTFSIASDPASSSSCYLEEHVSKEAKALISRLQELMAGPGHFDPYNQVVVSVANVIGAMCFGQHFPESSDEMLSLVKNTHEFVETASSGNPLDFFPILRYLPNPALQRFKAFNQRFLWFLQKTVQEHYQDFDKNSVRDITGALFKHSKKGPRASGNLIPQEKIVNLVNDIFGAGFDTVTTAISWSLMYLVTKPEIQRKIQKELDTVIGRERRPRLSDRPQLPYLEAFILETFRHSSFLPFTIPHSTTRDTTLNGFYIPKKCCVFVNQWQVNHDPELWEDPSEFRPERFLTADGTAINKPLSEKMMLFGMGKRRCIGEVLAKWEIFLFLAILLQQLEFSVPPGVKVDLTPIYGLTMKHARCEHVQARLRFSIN
Experimental: (§1) The inhibitory effects of the compounds prepared according to Examples 1 to 57 on CYP coenzyme activity were identified. Specifically, human liver microsomes (0.25 mg/mL), a 0.1 M phosphate buffer solution (pH 7.4), a substrate drug cocktail of five types of drug metabolism enzymes (50 μM phenacetin, 10 μM diclofenac, 100 μM S-mephenytoin, 5 μM dextromethorphan, and 2.5 μM midazolam), and the compound at a concentration of 0 μM or 10 μM were mixed and pre-cultured at 37° C. for 5 minutes, and then further cultured at 37° C. for 15 minutes together with an NADPH generation system solution added thereto. Thereafter, the reaction was terminated by adding an acetonitrile solution containing an internal standard material (terfenadine) and centrifuged for 5 minutes (14,000 rpm, 4° C.), and then a supernatant was injected into an LC-MS/MS system for simultaneous analysis of metabolites of the substrate drugs to thereby evaluate the inhibitory effects on drug metabolism.
(§2) Metabolites of each CYP coenzyme indicator drug generated through the reaction were analyzed using the Shimadzu Nexera XR system and TSQ Vantage (Thermo). In an HPLC column, Kinetex C18 (2.1 mm×100 mm, 2.6 μm, particle size; Phenomenex, USA) was used, and mobile phases were (A) distilled water containing 0.1% formic acid and (B) acetonitrile containing 0.1% formic acid, and a gradient program shown in Table 3 was applied thereto.
(§3) The generated metabolites were quantified using a multiple reaction monitoring (MRM) quantification mode, and Xcalibur (version 1.6.1) was used for data analysis. In order to express inhibitory effects of the novel compound prepared according to the examples of the present invention on CYP coenzyme activity, CYP coenzyme activities (%) with respect to the control group not treated with the compound are shown in Table 4 below.

CYP2C19 = target: T3, CYP2C19 (Homo sapiens, UniProt P33261); assay: as above; format: in vitro ADME; conditions: 10 μM compound, human liver microsomes 0.25 mg/mL, substrate S-mephenytoin, 15 minutes
T3 construct: human liver microsomes (0.25 mg/mL); from tissue; host or cells: human liver microsomes
T3 sequence (P33261 whole entry): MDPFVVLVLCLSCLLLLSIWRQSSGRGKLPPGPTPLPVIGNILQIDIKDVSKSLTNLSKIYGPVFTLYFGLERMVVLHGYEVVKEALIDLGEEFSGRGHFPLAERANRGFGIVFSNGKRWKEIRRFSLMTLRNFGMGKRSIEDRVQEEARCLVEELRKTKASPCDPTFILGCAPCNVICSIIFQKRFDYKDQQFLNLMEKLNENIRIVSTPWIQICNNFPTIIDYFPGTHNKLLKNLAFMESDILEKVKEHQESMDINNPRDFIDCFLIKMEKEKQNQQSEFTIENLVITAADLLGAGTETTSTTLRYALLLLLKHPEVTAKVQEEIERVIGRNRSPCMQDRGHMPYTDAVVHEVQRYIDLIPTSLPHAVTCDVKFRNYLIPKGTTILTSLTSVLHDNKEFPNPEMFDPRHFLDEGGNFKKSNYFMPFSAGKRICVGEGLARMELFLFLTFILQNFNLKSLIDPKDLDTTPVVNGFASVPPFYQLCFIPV
Experimental: as §1, §2, §3

CYP2C9 = target: T4, CYP2C9 (Homo sapiens, UniProt P11712); assay: as above; format: in vitro ADME; conditions: 10 μM compound, human liver microsomes 0.25 mg/mL, substrate diclofenac, 15 minutes
T4 construct: human liver microsomes (0.25 mg/mL); from tissue; host or cells: human liver microsomes
T4 sequence (P11712 whole entry): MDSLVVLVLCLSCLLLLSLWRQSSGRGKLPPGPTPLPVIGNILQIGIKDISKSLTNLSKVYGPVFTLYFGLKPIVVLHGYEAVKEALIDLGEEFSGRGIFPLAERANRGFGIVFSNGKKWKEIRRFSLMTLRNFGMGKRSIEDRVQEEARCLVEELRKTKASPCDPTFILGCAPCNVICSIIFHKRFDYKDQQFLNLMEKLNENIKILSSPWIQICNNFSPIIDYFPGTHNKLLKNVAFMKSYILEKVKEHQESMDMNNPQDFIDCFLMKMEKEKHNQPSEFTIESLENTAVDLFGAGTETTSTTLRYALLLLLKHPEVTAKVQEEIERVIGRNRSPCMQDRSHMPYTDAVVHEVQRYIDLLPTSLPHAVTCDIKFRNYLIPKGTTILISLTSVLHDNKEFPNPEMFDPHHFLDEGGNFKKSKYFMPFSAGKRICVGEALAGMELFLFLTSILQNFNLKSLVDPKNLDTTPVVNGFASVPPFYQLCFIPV
Experimental: as §1, §2, §3

CYP2D6 = target: T5, CYP2D6 (Homo sapiens, UniProt P10635); assay: as above; format: in vitro ADME; conditions: 10 μM compound, human liver microsomes 0.25 mg/mL, substrate dextromethorphan, 15 minutes
T5 construct: human liver microsomes (0.25 mg/mL); from tissue; host or cells: human liver microsomes
T5 sequence (P10635 whole entry): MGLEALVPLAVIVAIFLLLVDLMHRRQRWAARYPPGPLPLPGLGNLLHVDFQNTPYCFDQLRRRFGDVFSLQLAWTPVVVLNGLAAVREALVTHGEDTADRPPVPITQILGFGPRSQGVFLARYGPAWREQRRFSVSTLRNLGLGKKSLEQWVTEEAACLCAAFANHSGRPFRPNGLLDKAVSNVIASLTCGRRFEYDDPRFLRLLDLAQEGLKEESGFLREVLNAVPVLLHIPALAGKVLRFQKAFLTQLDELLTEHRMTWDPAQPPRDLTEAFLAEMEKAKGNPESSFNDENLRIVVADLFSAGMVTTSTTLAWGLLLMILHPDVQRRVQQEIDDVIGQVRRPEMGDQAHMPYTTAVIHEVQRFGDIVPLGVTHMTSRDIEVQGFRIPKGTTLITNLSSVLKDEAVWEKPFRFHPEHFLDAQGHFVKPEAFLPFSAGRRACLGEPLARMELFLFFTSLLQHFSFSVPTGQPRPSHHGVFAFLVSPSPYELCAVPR
Experimental: as §1, §2, §3

CYP3A4 = target: T6, CYP3A4 (Homo sapiens, UniProt P08684); assay: as above; format: in vitro ADME; conditions: 10 μM compound, human liver microsomes 0.25 mg/mL, substrate midazolam, 15 minutes
T6 construct: human liver microsomes (0.25 mg/mL); from tissue; host or cells: human liver microsomes
T6 sequence (P08684 whole entry): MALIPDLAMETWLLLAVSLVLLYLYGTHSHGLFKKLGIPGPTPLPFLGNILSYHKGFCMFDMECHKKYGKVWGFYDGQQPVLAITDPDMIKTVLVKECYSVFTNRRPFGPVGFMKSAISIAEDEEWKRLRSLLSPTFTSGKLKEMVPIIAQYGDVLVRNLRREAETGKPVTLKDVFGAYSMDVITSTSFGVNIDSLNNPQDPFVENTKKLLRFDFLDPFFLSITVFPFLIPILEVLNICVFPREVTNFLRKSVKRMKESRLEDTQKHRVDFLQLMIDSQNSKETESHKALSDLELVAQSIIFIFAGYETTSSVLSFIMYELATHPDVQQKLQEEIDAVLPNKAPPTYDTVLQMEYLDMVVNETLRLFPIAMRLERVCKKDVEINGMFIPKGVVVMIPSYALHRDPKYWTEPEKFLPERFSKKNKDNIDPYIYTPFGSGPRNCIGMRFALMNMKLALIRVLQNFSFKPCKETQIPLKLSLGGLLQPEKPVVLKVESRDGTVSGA
Experimental: as §1, §2, §3

Cc1cc(=O)n(C)c2ccc(NN=C(C#N)C#N)cc12 [Compound 27, (1,4-dimethyl-2-oxo-1,2-dihydroquinolin-6-yl)carbonohydrazonoyl dicyanide]
Tau BiFC in cells Response (% @10 μM) (tau protein; 10 μM compound, Forskolin-only group = 100% tau protein-aggregated state): −41%
IC50 (tau protein; tau-BiFC cells): 0.01 µM
Cell viability (% @10 μM) (Tau-BiFC cells): 115%
CYP1A2 coenzyme activity (%) with respect to control group not treated (CYP1A2): 58.7%
CYP2C19 coenzyme activity (%) with respect to control group not treated (CYP2C19): 96.3%
CYP2C9 coenzyme activity (%) with respect to control group not treated (CYP2C9): 33.6%
CYP2D6 coenzyme activity (%) with respect to control group not treated (CYP2D6): 86.7%
CYP3A4 coenzyme activity (%) with respect to control group not treated (CYP3A4): 73.6%
